Our source for the inhibition, IC50 and Activity values is ChEMBL document CHEMBL1152593, “Furanocoumarins: novel topoisomerase I inhibitors from Ruta graveolens L” (Bioorg Med Chem, 2009).

Calls of active or inactive are those of the source. No cut-off for these calls is given here.

Assay [1] is filed under the species Bos taurus. Briefly: Inhibition of calf thymus DNA topoisomerase 1 assessed as pUC19 DNA relaxation at 40 uM by gel electrophoresis.
For assay [2], the species on record is Bos taurus. In words: (§1) Inhibition of calf thymus DNA topoisomerase 1 assessed as pUC19 DNA relaxation by gel electrophoresis.
A short description of assay [3]: as §1. Set-up: species or system Bos taurus.
Assay [4] is filed under the species Bos taurus. Briefly: Inhibition of calf thymus DNA topoisomerase 1 assessed as pUC19 DNA relaxation at 20 uM by gel electrophoresis.
Assay [5] is filed under the species Bos taurus. In words: Inhibition of calf thymus DNA topoisomerase 1 assessed as pUC19 DNA relaxation at 10 uM by gel electrophoresis.

As for `COc1c2occc2cc2ccc(=O)oc12` [METHOXSALEN], the inhibition (usually the share of the control response that was lost under treatment) in assay [1] is “Active”. The inhibition entry in assay [2] is “Dose-dependent effect”. In addition, in assay [3], the IC50 (usually the concentration needed to halve the response being measured) came to 28 µM.
With `O=c1ccc2cc3ccoc3cc2o1` [PSORALEN], the values for the inhibition in assay [4] and in assay [2] were 100% and “Dose-dependent effect”, respectively. The inhibition entry in assay [5] is “inactive”. Also, in assay [3], the IC50 amounted to 11 µM.
Regarding `COc1c2ccoc2cc2oc(=O)ccc12` [BERGAPTEN], the outcome in assay [5] was Active. Also, the inhibition result in assay [2] was “Dose-dependent effect”. Besides, the IC50 in assay [3] amounted to 6.5 µM.
